Measured values published in US10067136B1, “Photoactivatable probes and uses thereof” (University of South Florida, priority 2016, dated 2018).
“Also recorded” adds a separate entry of the source.

How the values were obtained:
[1] = Ambient light stability evaluation (fluorescent lamps, 19F NMR); type: physicochemical; details: d4-methanol; for photodecomposition under ambient light (in words): after 7 days of light exposure; for diazirine remaining intact after ambient light exposure: one month, two linear fluorescent lamps (28 W each), room temperature
Description: (§1) Photolabel (1, 2, or 3) (1 mg) was dissolved in d4-methanol (500 μL) in a 5 mm NMR tube. The ^19F NMR of this solution was recorded before any exposure to ambient light as the zero day reading. The NMR tube was then placed directly under two linear fluorescent lamps (28 W each) at room temperature and the ^19F NMR of this solution was recorded periodically (4, 7, 14, 18, 26 and 31 days). The analysis was repeated in duplicate.

[2] = Thermal stability evaluation in the dark (19F NMR); type: physicochemical; details: d4-methanol solution, room temperature (21° C.), one month
Description: as §1, with “in the dark” for “directly under two linear fluorescent lamps (28 W each)”, “(8,” for “(4, 7,”, “14,” for “14, 18, 26”

[3] = target: T1, concanavalin A (Con A) (Canavalia ensiformis, UniProt P02866); test: Photolabeling of Con A, Coomassie gel and anti-biotin western blot; type: binding; details: for photolabeling of Con A upon UV photoactivation (in words): UV light >320 nm, 10 minutes, anti-biotin peroxidase western blot; for labeling of Con A without UV photoactivation (in words): incubated with Con A, not exposed to UV light
Description: To a solution of concanavalin A (Con A) (0.2 mg) in acetate buffer (10 mM, pH=5 with calcium chloride (1 mM), manganese (II) chloride (1 mM) and sodium chloride (200 mM)) (1 ml), the photoaffinity label (20, 21 or 22) solution (10 mM) in methanol (3 μL) was added at 0° C. This solution was bubbled with a gentle stream of nitrogen gas, using a clean needle, for 5 minutes and incubated in the dark at 0° C. for 30 minutes. […] The resultant sample can be stored at −80° C. and used for SDS gel, Western blot analysis or mass spectroscopic analysis.
Upon running the SDS gel, the PVDF membrane and gel was shaken in transfer buffer for 15 minutes. The holder cassette was placed opened in a shallow vessel such that the black panel was lying flat on the bottom of the vessel. Fiber pad presoaked with transfer buffer was then placed on the black panel of the holder cassette and a presoaked filter paper was placed over it. The equilibrated gel was carefully placed over the filter paper to avoid any air bubble getting trapped between the layers. Then the PVDF membrane was laid over the gel with care towards avoiding any air pocket between the layers. A presoaked filter paper was placed over the membrane followed by a filter pad. The resultant sandwich was firmly secured and the cassette was closed. The cassette holder was placed in the tank such that the black panel of the holder was on the black panel electrode. Insert the ice pack on the other side of the tank and place the tank on a magnetic stirrer. The tank was filled to the top row of circles in the cassette with transfer buffer. The magnetic stirrer was turned on and the lid was closed with black wire to black panel, red wire to red panel. The unit was connected to a power supply and ran at constant voltage of 70 V for 60 minutes. The membrane was carefully removed and the membrane was blocked with 5% (w/v) NFDM (non-fat dry milk) in tris saline Tween-20 buffer (TBS-T) for 1 hour at room temperature. The blocked membrane was then incubated overnight on a shaker at 4° C. with anti-biotin-peroxidase antibody in TBS-T buffer containing 1% NFDM. The membrane was washed five times (10 minutes each time on a shaker) with TBS-T buffer. The membrane was incubated for 5 minutes at room temperature with SuperSignal West Pico chemiluminescence substrate as per manufacturer's protocol. The resultant chemiluminescence of the bands was recorded on a photographic film and developed using a film processor.

[4] = Near UV-visible absorption spectra; type: physicochemical; details: near-UV/Vis, 2.5 mM solution in methanol; relative to the conventional photolabel
[5] = target: T1, concanavalin A (Con A); test: Photolabeling of Con A in the presence of mannose (competitive binding); details: competing mannose at 100 fold or 1000 fold, western blot
Description: For the competitive binding studies with mannose, to a solution of Con A (0.2 mg) in acetate buffer (10 mM, pH=5 with calcium chloride (1 mM), manganese (II) chloride (1 mM) and sodium chloride (200 mM)) (1 ml) a aqueous solution of mannose (30 μL of 100 mM solution for 100 fold [or] 30 μL of 1 M solution for 1000 fold) was added and mixed. To this the photoaffinity label (20, 21 or 22) solution (10 mM) in methanol (3 μL) was added at 0° C. This solution was bubbled with a gentle stream of nitrogen gas, using a clean needle, for 5 minutes and incubated in the dark at 0° C. for 30 minutes. The sample was then transferred to a disposable cuvette and photoactivated for 10 minutes using a 150 W XBO xenon short-arc UV lamp fitted with a filter that cuts off light with wavelengths less than 320 nm. The resultant sample can be stored at −80° C. and used for SDS gel and Western blot analysis.
Upon running the SDS gel, the PVDF membrane and gel was shaken in transfer buffer for 15 minutes. The holder cassette was placed opened in a shallow vessel such that the black panel was lying flat on the bottom of the vessel. Fiber pad presoaked with transfer buffer was then placed on the black panel of the holder cassette and a presoaked filter paper was placed over it. […] The resultant chemiluminescence of the bands was recorded on a photographic film and developed using a film processor.

Row | SMILES | photodecomposition under ambient light (in words) [1] | diazirine remaining intact after ambient light exposure [1] | decomposition / stability in the dark (in words) [2] | photolabeling of Con A upon UV photoactivation (in words) [3] | decrease of absorption coefficient ϵ [4] | labeling of Con A without UV photoactivation (in words) [3] | photolabeling / crosslinking of Con A in the presence of mannose (in words) [5]
1 | OCc1ccc(C2(C(F)(F)F)N=N2)cn1 [compound 1, (5-(3-(trifluoromethyl)-3H-diazirin-3-yl)pyridin-2-yl)methanol] | negligibly photodecomposed | 79% | stable | as efficiently as the conventional diazirine photolabel 3 | approximately 15% |  | 
2 | OCc1ncc(C2(C(F)(F)F)N=N2)cn1 [compound 2, (5-(3-(trifluoromethyl)-3H-diazirin-3-yl)pyrimidin-2-yl) methanol] | virtually unaffected | 90% | stable | as efficiently as the conventional diazirine photolabel 3 | ~30% |  | 
3 | OCc1ccc(C2(C(F)(F)F)N=N2)cc1 [compound 3, (4-(3-(trifluoromethyl)-3H-diazirin-3-yl)phenyl)methanol, reference compound] | significant photodecomposition | 27% | stable |  |  |  | 
4 | O=C(CCCCC1SCC2NC(=O)NC21)NCCCCCCN(Cc1ccc(C2(C(F)(F)F)N=N2)cc1)C(=O)CO[C@H]1O[C@H](CO)[C@@H](O)[C@H](O)[C@@H]1O (stereo partly drawn) [compound 20, 5-(2-oxohexahydro-1H-thieno[3,4-d]imidazol-4-yl)-N-(6-(N-(4-(3-(trifluoromethyl)-3H-diazirin-3-yl)benzyl)-2-(((2S,3S,4S,5S,6R)-3,4,5-trihydroxy-6-(hydroxymethyl)tetrahydro-2H-pyran-2-yl)oxy)acetamido)hexyl)pentanamide] |  |  |  | successfully labeled the protein target upon photoactivation |  | detected only with coomassie stain and not in the western blot analysis | 
5 | O=C(CCCCC1SCC2NC(=O)NC21)NCCCCCCN(Cc1ccc(C2(C(F)(F)F)N=N2)cn1)C(=O)CO[C@H]1O[C@H](CO)[C@@H](O)[C@H](O)[C@@H]1O (stereo partly drawn) [compound 21, 5-(2-oxohexahydro-1H-thieno[3,4-d]imidazol-4-yl)-N-(6-(N-((5-(3-(trifluoromethyl)-3H-diazirin-3-yl)pyridin-2-yl)methyl)-2-(((2S,3S,4S,5S,6R)-3,4,5-trihydroxy-6-(hydroxymethyl)tetrahydro-2H-pyran-2-yl)oxy)acetamido)hexyl)pentanamide] |  |  |  | successfully labeled the protein target upon photoactivation; also recorded: as effectively as the conventional phenyl derived photolabel 20 |  | detected only with coomassie stain and not in the western blot analysis | correlates indirectly to the concentration of competing mannose ligand
6 | O=C(CCCCC1SCC2NC(=O)NC21)NCCCCCCN(Cc1ncc(C2(C(F)(F)F)N=N2)cn1)C(=O)CO[C@H]1O[C@H](CO)[C@@H](O)[C@H](O)[C@@H]1O (stereo partly drawn) [compound 22, 5-(2-oxohexahydro-1H-thieno[3,4-d]imidazol-4-yl)-N-(6-(N-((5-(3-(trifluoromethyl)-3H-diazirin-3-yl)pyrimidin-2-yl)methyl)-2-(((2S,3S,4S,5S,6R)-3,4,5-trihydroxy-6-(hydroxymethyl)tetrahydro-2H-pyran-2-yl)oxy)acetamido)hexyl)pentanamide] |  |  |  | successfully labeled the protein target upon photoactivation; also recorded: as effectively as the conventional phenyl derived photolabel 20 |  | detected only with coomassie stain and not in the western blot analysis | correlates indirectly to the concentration of competing mannose ligand
